One assay concerns the target Carbonic anhydrase 2 (Homo sapiens, UniProt P00918). Nature of the assay: Inhibition of human recombinant carbonic anhydrase 2-mediated CO2 hydration after 6 hrs by stopped-flow assay.
Assay [1] addresses T1, Carbonic anhydrase 9 (Homo sapiens, UniProt Q16790). Put plainly: Inhibition of human recombinant carbonic anhydrase 9-mediated CO2 hydration after 6 hrs by stopped-flow assay.
A further assay concerns the target Carbonic anhydrase 1 (Homo sapiens, UniProt P00915). Put plainly: Inhibition of human recombinant carbonic anhydrase 1-mediated CO2 hydration after 6 hrs by stopped-flow assay.
Assay [2] concerns the target T1, Carbonic anhydrase 9. Put plainly: Ratio of acetazolamide Ki to compound Ki for human recombinant carbonic anhydrase 9.

The structures appear in SMILES notation.

Carbonic anhydrase 1, sequence (P00915 whole entry): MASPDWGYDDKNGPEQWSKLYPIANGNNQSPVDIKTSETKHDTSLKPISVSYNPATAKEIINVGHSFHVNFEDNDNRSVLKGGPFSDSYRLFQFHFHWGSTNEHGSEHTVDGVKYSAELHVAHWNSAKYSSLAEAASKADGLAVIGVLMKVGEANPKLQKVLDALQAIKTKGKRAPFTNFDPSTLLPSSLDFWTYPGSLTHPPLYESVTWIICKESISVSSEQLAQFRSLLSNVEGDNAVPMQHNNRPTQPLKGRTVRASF

As a reminder, the Ki is the equilibrium dissociation constant of an inhibitor or competing ligand from its target. Take `COc1cccc(-c2cnnn2-c2ccc3c(c2)C=CS(=O)(=O)O3)c1`: the results for the Ki on Carbonic anhydrase 2, on Carbonic anhydrase 9 [1] and on Carbonic anhydrase 1 were over 10 µM, 9.1 nM and over 10 µM, respectively.

For `O=S1(=O)C=Cc2cc(-n3cc(-c4ccc(F)cc4)nn3)ccc2O1`, the Ki at Carbonic anhydrase 2 and on Carbonic anhydrase 1 was over 10 µM throughout.

Consider `O=S1(=O)C=Cc2cc(-n3cc(-c4ccc(C(F)(F)F)cc4)nn3)ccc2O1`, for which the Ki was over 10 µM at Carbonic anhydrase 2, 136 nM on Carbonic anhydrase 9 [1] and over 10 µM at Carbonic anhydrase 1.

As for `O=S1(=O)C=Cc2cc(-n3nncc3-c3cccc(F)c3)ccc2O1`, the figures for the Ki on Carbonic anhydrase 2, at Carbonic anhydrase 9 [1] and on Carbonic anhydrase 1 were over 10 µM, 7.4 nM and over 10 µM, respectively.

With `O=S1(=O)C=Cc2cc(-n3nncc3-c3ccc(OC(F)(F)F)cc3)ccc2O1`, the Ki was over 10 µM on Carbonic anhydrase 2, 102 nM on Carbonic anhydrase 9 [1] and over 10 µM at Carbonic anhydrase 1.

Consider `O=S1(=O)C=Cc2cc(-n3nncc3-c3ccccc3)ccc2O1`, for which the Ki at Carbonic anhydrase 2 was over 10 µM; on Carbonic anhydrase 9 [1] it was 67.1 nM; at Carbonic anhydrase 1 it was over 10 µM.

For `O=S1(=O)C=Cc2cc(-n3cc(-c4ccc(Cl)cc4)nn3)ccc2O1`, the Ki at Carbonic anhydrase 2 and at Carbonic anhydrase 1 was over 10 µM each time. Moreover, at Carbonic anhydrase 9 [2], the Ratio Ki was determined as 3.

As to `O=S1(=O)C=Cc2cc(-n3nncc3-c3ccc(F)cc3)ccc2O1`, the Ki at Carbonic anhydrase 2 and at Carbonic anhydrase 1 was over 10 µM each time.

With `Nc1cccc(-c2cn(-c3ccc4c(c3)C=CS(=O)(=O)O4)nn2)c1`, the Ki on Carbonic anhydrase 2 was over 10 µM; on Carbonic anhydrase 9 [1] it was 875 nM; at Carbonic anhydrase 1 it was over 10 µM.

`O=S1(=O)C=Cc2cc(-n3nncc3-c3ccc(Cl)cc3)ccc2O1`: the values for the Ki on Carbonic anhydrase 2, on Carbonic anhydrase 9 [1] and at Carbonic anhydrase 1 were over 10 µM, 9.2 nM and over 10 µM, respectively.

On to `Nc1ccccc1-c1cnnn1-c1ccc2c(c1)C=CS(=O)(=O)O2`, for which the Ki at Carbonic anhydrase 2 is over 10 µM; on Carbonic anhydrase 9 [1], 9.5 nM; at Carbonic anhydrase 1 it was over 10 µM.

As for `O=S1(=O)C=Cc2cc(-n3cc(C4CC4)nn3)ccc2O1`, the Ki at Carbonic anhydrase 2 and on Carbonic anhydrase 1 was over 10 µM each time.

For `O=S1(=O)C=Cc2cc(-n3nncc3-c3cccc(C(F)(F)F)c3)ccc2O1`, the Ki at Carbonic anhydrase 2 and at Carbonic anhydrase 1 was over 10 µM in each case.

As for `Nc1ccccc1-c1cn(-c2ccc3c(c2)C=CS(=O)(=O)O3)nn1`, the Ki on Carbonic anhydrase 2 was over 10 µM; at Carbonic anhydrase 9 [1], 7.9 nM; on Carbonic anhydrase 1 it was over 10 µM.

Regarding `CC(C)(C)c1cn(-c2ccc3c(c2)C=CS(=O)(=O)O3)nn1`, the Ki was over 10 µM on Carbonic anhydrase 2, 10.5 nM on Carbonic anhydrase 9 [1] and over 10 µM at Carbonic anhydrase 1.

In the case of `O=S1(=O)C=Cc2cc(-n3cc(-c4cccc(Cl)c4)nn3)ccc2O1`, the Ki is over 10 µM at Carbonic anhydrase 2, 93.1 nM on Carbonic anhydrase 9 [1] and over 10 µM on Carbonic anhydrase 1.

On to `COc1ccc(-c2cnnn2-c2ccc3c(c2)C=CS(=O)(=O)O3)cc1`, for which the Ki at Carbonic anhydrase 2 was over 10 µM; on Carbonic anhydrase 9 [1] it was 8.3 nM; on Carbonic anhydrase 1, over 10 µM.

In the case of `O=S1(=O)C=Cc2cc(-n3nncc3-c3ccc(C(F)(F)F)cc3)ccc2O1`, the Ki on Carbonic anhydrase 2 is over 10 µM; on Carbonic anhydrase 9 [1], 7.2 nM; at Carbonic anhydrase 1 it was over 10 µM.

For `O=S1(=O)C=Cc2cc(-n3cc(-c4cccc(F)c4)nn3)ccc2O1`, the Ki at Carbonic anhydrase 2 and on Carbonic anhydrase 1 was over 10 µM each time.

Consider `O=S1(=O)C=Cc2cc(-n3nncc3-c3cccc(Cl)c3)ccc2O1`, for which the Ki at Carbonic anhydrase 2 is over 10 µM; on Carbonic anhydrase 9 [1], 8.8 nM; on Carbonic anhydrase 1, over 10 µM.

Regarding `CC(C)(O)c1cn(-c2ccc3c(c2)C=CS(=O)(=O)O3)nn1`, the Ki was over 10 µM on Carbonic anhydrase 2, 62.7 nM at Carbonic anhydrase 9 [1] and over 10 µM at Carbonic anhydrase 1.
